Measured values as given in the supplement of paper PMC10307832.

Assays:
Assay in all cases: relative viability (nuclei count vs DMSO), 5 days (fraction); higher = more cells survive
H3255 = system: H3255
Procedure, shortened: (§1)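 After 5 days of treatment, lung cancer cells in 1536-well plates were fixed and stained in a single step (final 0.05% Triton X-100, 1% formaldehyde, 1 ug/ml Hoechst) and their nuclei counted on 4× images. Treatment had been applied by pin tool the day after seeding as one drug alone or as a fixed anchor-drug dose with five library-drug doses (not always all listed) in √10 steps. Relative viability is the nuclei count of treated wells divided by that of vehicle wells, and values are medians of duplicate plates.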

NCI-H1792 = system: NCI-H1792
Procedure, shortened: as §1

SW 900 = system: SW 900
Procedure, shortened: as §1

NCI-H520 = system: NCI-H520
Procedure, shortened: as §1

NCI-H522 = system: NCI-H522
Procedure, shortened: as §1

NCI-H1793 = system: NCI-H1793
Procedure, shortened: as §1

LXF-289 = system: LXF-289
Procedure, shortened: as §1

NCI-H1944 = system: NCI-H1944
Procedure, shortened: as §1

NCI-H1975 = system: NCI-H1975
Procedure, shortened: as §1

NCI-H2023 = system: NCI-H2023
Procedure, shortened: as §1

HCC-827 = system: HCC-827
Procedure, shortened: as §1

NCI-H2170 = system: NCI-H2170
Procedure, shortened: as §1

In the case of `Cc1cn(-c2cc(NC(=O)c3ccc(C)c(Nc4nccc(-c5cccnc5)n4)c3)cc(C(F)(F)F)c2)cn1` [Nilotinib] + N=C(N)NC(=N)NCCc1ccccc1 [Phenformin] (partner 250 µM), the relative viability (H3255; first compound 0.001 µM) is reported as 0.382, the relative viability (H3255; first compound 0.003162 µM) is reported as 0.303 and the relative viability (H3255; first compound 0.03162 µM) is reported as 0.403. The relative viability (H3255; first compound 0.1 µM) was 0.407, the relative viability (NCI-H1792; first compound 0.001 µM) was 0.277 and the relative viability (NCI-H1792; first compound 0.003162 µM) was 0.318. The relative viability (NCI-H1792; first compound 0.01 µM) was 0.164, the relative viability (NCI-H1792; first compound 0.03162 µM) was 0.203 and the relative viability (NCI-H1792; first compound 0.1 µM) was 0.259. For the same compound, the relative viability (SW 900; first compound 0.001 µM) was 0.605, the relative viability (SW 900; first compound 0.003162 µM) was 0.634 and the relative viability (SW 900; first compound 0.01 µM) was 0.612. It also gave a relative viability (SW 900; first compound 0.03162 µM) of 0.44, a relative viability (SW 900; first compound 0.1 µM) of 0.408 and a relative viability (NCI-H520; first compound 0.001 µM) of 0.707. The relative viability (NCI-H520; first compound 0.01 µM) was 0.655, the relative viability (NCI-H520; first compound 0.03162 µM) was 0.447 and the relative viability (NCI-H520; first compound 0.1 µM) was 0.428. It also gave a relative viability (NCI-H522; first compound 0.001 µM) of 0.591, a relative viability (NCI-H522; first compound 0.003162 µM) of 0.613 and a relative viability (NCI-H522; first compound 0.01 µM) of 0.719. For the same compound, the relative viability (NCI-H522; first compound 0.03162 µM) was 0.663, the relative viability (NCI-H522; first compound 0.1 µM) was 0.56 and the relative viability (NCI-H1793; first compound 0.001 µM) was 0.36. It also gave a relative viability (NCI-H1793; first compound 0.003162 µM) of 0.363, a relative viability (NCI-H1793; first compound 0.01 µM) of 0.357 and a relative viability (NCI-H1793; first compound 0.03162 µM) of 0.196. For the same compound, the relative viability (NCI-H1793; first compound 0.1 µM) was 0.232, the relative viability (LXF-289; first compound 0.001 µM) was 0.545 and the relative viability (LXF-289; first compound 0.003162 µM) was 0.562. For the same compound, the relative viability (LXF-289; first compound 0.01 µM) was 0.558, the relative viability (LXF-289; first compound 0.03162 µM) was 0.506 and the relative viability (LXF-289; first compound 0.1 µM) was 0.454. For the same compound, the relative viability (NCI-H1944; first compound 0.001 µM) was 0.193, the relative viability (NCI-H1944; first compound 0.003162 µM) was 0.216 and the relative viability (NCI-H1944; first compound 0.01 µM) was 0.222. For the same compound, the relative viability (NCI-H1944; first compound 0.03162 µM) was 0.181, the relative viability (NCI-H1975; first compound 0.001 µM) was 0.406 and the relative viability (NCI-H1975; first compound 0.003162 µM) was 0.438. For the same compound, the relative viability (NCI-H1975; first compound 0.01 µM) was 0.413, the relative viability (NCI-H1975; first compound 0.03162 µM) was 0.363 and the relative viability (NCI-H1975; first compound 0.1 µM) was 0.378. For the same compound, the relative viability (NCI-H2023; first compound 0.001 µM) was 0.461, the relative viability (NCI-H2023; first compound 0.003162 µM) was 0.455 and the relative viability (NCI-H2023; first compound 0.01 µM) was 0.571. The relative viability (NCI-H2023; first compound 0.03162 µM) was 0.325, the relative viability (NCI-H2023; first compound 0.1 µM) was 0.361 and the relative viability (HCC-827; first compound 0.003162 µM) was 0.436. For the same compound, the relative viability (HCC-827; first compound 0.01 µM) was 0.384, the relative viability (HCC-827; first compound 0.03162 µM) was 0.438 and the relative viability (HCC-827; first compound 0.1 µM) was 0.384. It also gave a relative viability (NCI-H2170; first compound 0.001 µM) of 0.408 and a relative viability (NCI-H2170; first compound 0.003162 µM) of 0.432.
